The conditions of series [1]: rcm bond, Zhan 1B, DCE.
The test system of series [2] is genotype 3a stable HCV replicon (S52 strain) in Huh-7-derived cells. The experiment in a line: Stable subgenomic HCV replicon EC50, genotype 3a (Renilla luciferase). The class given is cell-based. The note with it: Hepatitis C virus, 72 h, read-out: EC50 3A RLUC. Here is the method: (§1) Antiviral potency (EC50) was determined in both stable subgenomic HCV replicon cell lines and transient-transfected HCV replicon cells. The term half maximal effective concentration (EC50) refers to the concentration of a drug which induces a response halfway between the baseline and maximum after the exposure time specified below.
(§2) Stable subgenomic HCV replicons for genotype 1a, 1 b, 2a, 3a, and 4a were established in Huh-7-derived cells as described by Lohmann et al (Lohmann V, Korner F, Koch J, et al Replication of subgenomic hepatitis C virus RNAs in a hepatoma cell line. Science 1999; 285:119-3). Each stable cell line contains a bicistronic HCV replicon that encodes a humanized Renilla luciferase (hRLuc) reporter gene fused to a selectable neomycin-resistance gene, followed by an EMCV IRES and the NS3-NS5B coding region of HCV. […] Luciferase activity was measured as a marker for intracellular HCV replication levels.
(§3) The genotype 1a stable replicon was derived from the H77 HCV strain and contained adaptive mutations P1496L and S2204I. The genotype 1 b stable replicon was derived from the Cont HCV strain and contained adaptive mutations E1202G, T1280I, and K1846T. […] The genotype 3a stable replicon was derived from the S52 HCV strain and contained adaptive mutations P1121 L, A1198T and S2210I (equivalent to S2204I in genotype 1). The genotype 4a stable replicon was derived from the ED43 HCV strain and contained adaptive mutations Q1691R and S2204I. All replicon cell lines were propagated in Huh-7-derived cells and maintained in Dulbecco's modified Eagle's Medium (DMEM) supplemented with 10% fetal bovine serum (FBS) and 0.5 mg/mL G418.
(§4) To perform EC50 assays, cells from each HCV replicon were dispensed into 384-well plates. Compounds were dissolved in DMSO at a concentration of 10 mM and diluted in DMSO using an automated pipetting instrument. Three-fold serially diluted compounds were directly added to the cells using an automated instrument. […] Seventy-two hours later, cells were lysed and Renilla luciferase activity were quantified as recommended by the manufacturer (Promega-Madison, Wis.). Non-linear regression was performed to calculate EC50 values.
For orientation: Replicon systems follow genome replication, usually without infectious particles.

Series [3] has as its system genotype 1a stable HCV replicon (H77 strain) in Huh-7-derived cells. The experiment in a line: Stable subgenomic HCV replicon EC50, genotype 1a (Renilla luciferase). In kind it is cell-based. The note with it: Hepatitis C virus, stable replicon genotype 1a, 72 h, read-out: EC50 1A RLUC. How it is done:
as §1, §2, §3, §4

The subject of series [4] is genotype 1b transient HCV replicon, NS3/4a protease inhibitor resistant variant D168A, in Huh-7-derived cells. The experiment in a line: Transient-transfected HCV replicon EC50, genotype 1b D168A. The class given is cell-based. As to conditions: Hepatitis C virus, 72 h, read-out: EC50 1B D168A.
In series [5] the test system is genotype 1b (Con1) wild-type transient HCV replicon in Huh-7-derived cells. The experiment in a line: Transient-transfected HCV replicon EC50, genotype 1b wild type. The class given is cell-based. As to conditions: Hepatitis C virus; transient-transfected replicon genotype 1b wild type, 72 h; read-out: EC50 1B WT.
The test system of series [6] is genotype 1a (H77) wild-type transient HCV replicon in Huh-7-derived cells. The experiment in a line: Transient-transfected HCV replicon EC50, genotype 1a wild type. In kind it is cell-based. As to conditions: Hepatitis C virus; transient-transfected replicon genotype 1a wild type, 72 h; read-out: EC50 1A WT.
The subject of series [7] is genotype 2a stable HCV replicon (JFH-1 strain) in Huh-7-derived cells. The experiment in a line: Stable subgenomic HCV replicon EC50, genotype 2a (Renilla luciferase). In kind it is cell-based. As to conditions: Hepatitis C virus, stable replicon genotype 2a, 72 h, read-out: EC50 2A RLUC. Here is the method:
as §1, §2, §3, §4

Series [8] has as its system genotype 1a transient HCV replicon, NS3/4a protease inhibitor resistant variant R155K, in Huh-7-derived cells. The experiment in a line: Transient-transfected HCV replicon EC50, genotype 1a R155K. The class given is cell-based. As to conditions: Hepatitis C virus, 72 h, read-out: EC50 1A R155K.
Series [9] relates to genotype 1b stable HCV replicon in Huh-7-derived cells. The experiment in a line: Stable subgenomic HCV replicon EC50, genotype 1b (Renilla luciferase). The note with it: Hepatitis C virus, stable replicon genotype 1b, 72 h, read-out: EC50 1B RLUC. In kind it is cell-based. Here is the method:
as §1, §2, §3, §4

For series [10], the system named is genotype 4a stable HCV replicon (ED43 strain) in Huh-7-derived cells. The experiment in a line: Stable subgenomic HCV replicon EC50, genotype 4a (Renilla luciferase). In kind it is cell-based. The note with it: Hepatitis C virus, 72 h, read-out: EC50 4A RLUC. How it is done:
as §1, §2, §3, §4

Read-outs that look alike come from different tables or passages of the source.

One may read the EC50 as the concentration needed to bring the measured effect to its halfway point.

In [1] (from C=CCCCC1C(OC(=O)N[C@H](C(=O)N2C[C@H](Oc3nc4cc(OC)ccc4nc3C=C)[C@@H](C)[C@H]2C(=O)OC(C)(C)C)C(C)(C)C)CC2CC21, 2.91 mM, 85.0 °C, 1.75 h), `COc1ccc2nc3c(nc2c1)O[C@H]1CN(C(=O)[C@H](C(C)(C)C)NC(=O)O[C@@H]2C[C@@H]4C[C@@H]4[C@H]2CCCC=C3)[C@H](C(=O)OC(C)(C)C)[C@@H]1C` came in with a ring closure, yield of all isomers of 33.1%.

The compound `CC[C@@H]1[C@@H]2CN(C(=O)[C@H](C(C)(C)C)NC(=O)O[C@@H]3[C@H]4CC[C@H](C4)[C@H]3CCCC=Cc3nc4ccc(OC)cc4nc3O2)[C@@H]1C(=O)OC(C)(C)C` registered a ring closure, yield of all isomers in [1] (from C=CCCCC1C2CCC(C2)C1OC(=O)N[C@H](C(=O)N1C[C@H](Oc2nc3cc(OC)ccc3nc2C=C)[C@@H](CC)[C@H]1C(=O)OC(C)(C)C)C(C)(C)C, 4.0 mM, 100.0 °C, 0.75 h) of 45.2%.

Consider `COc1ccc2nc3c(nc2c1)O[C@H]1CN(C(=O)[C@H](C(C)(C)C)NC(=O)O[C@@H]2CCN(C(C)=O)C2CCCCC3)[C@H](C(=O)N[C@]2(C(=O)NS(=O)(=O)C3(C)CC3)C[C@H]2C(F)F)[C@@H]1C` (stereo partly drawn) [Example 80, (3aR,7S,10S,11S,12R)-1-acetyl-7-tert-butyl-N-[(1R,2R)-2-(difluoromethyl)-1-{[(1-methylcyclopropyl)sulfonyl]carbamoyl}cyclopropyl]-16-methoxy-11-methyl-5,8-dioxo-1,2,3,3a,5,6,7,8,11,12,20,21,22,23,24,24a-hexadecahydro-10H-9,12-methanopyrrolo[2′,3′:18,19][1,10,3,6]dioxadiazacyclononadecino[11,12-b]quinoxaline-10-carboxamide], for which the EC50 in series [2] is not below 44400 nM.

As to `CC[C@@H]1[C@@H]2CN(C(=O)[C@H](C(C)(C)C)NC(=O)O[C@@]3(C(F)(F)F)CCC[C@H]3CCCCCc3nc4ccc(OC)cc4nc3O2)[C@@H]1C(=O)N[C@]1(C(=O)NS(=O)(=O)C2CC2)C[C@H]1C(F)F` [Example 12, (7S,10S,11S,12R)-7-tert-butyl-N-[(1R,2R)-1-[(cyclopropylsulfonyl)carbamoyl]-2-(difluoromethyl)cyclopropyl]-11-ethyl-16-methoxy-5,8-dioxo-3a5-(trifluoromethyl)-1,2,3,3a,5,6,7,8,11,12,20,21,22,23,24,24a-hexadecahydro-10H-9,12-methanocyclopenta[18,19][1,10,3,6]dioxadiazacyclononadecino[11,12-b]quinoxaline-10-carboxamide], the EC50 is 2010 nM in [2]; 34 nM in series [3]; 640 nM in series [4]; 5.7 nM in series [5]; 14 nM in [6]; 25 nM in series [7]. The EC50 in series [8] came out at 283 nM; in series [9] it was 18 nM; in series [10], 21 nM.

Regarding `COc1ccc2nc3c(nc2c1)O[C@H]1CN(C(=O)[C@H](C(C)(C)C)NC(=O)O[C@@H]2CCC[C@H]2CCCC=C3)[C@H](C(=O)OC(C)(C)C)[C@@H]1C`, the ring closure, yield of all isomers in series [1] (from C=CCCC[C@@H]1CCC[C@H]1OC(=O)N[C@H](C(=O)N1C[C@H](Oc2nc3cc(OC)ccc3nc2C=C)[C@@H](C)[C@H]1C(=O)OC(C)(C)C)C(C)(C)C, 4.97 mM, 83.0 °C, […]) was determined as 78.5%.

In the case of `CC[C@@H]1[C@@H]2CN(C(=O)[C@H](C(C)(C)C)NC(=O)O[C@]3(C(F)(F)F)CCC[C@H]3CCCCCc3nc4ccc(OC)cc4nc3O2)[C@@H]1C(=O)N[C@]1(C(=O)NS(=O)(=O)C2CC2)C[C@H]1C(F)F` [Example 11, (7S,10S,11S,12R)-7-tert-butyl-N-[(1R,2R)-1-[(cyclopropylsulfonyl)carbamoyl]-2-(difluoromethyl)cyclopropyl]-11-ethyl-16-methoxy-5,8-dioxo-3aR-(trifluoromethyl)-1,2,3,3a,5,6,7,8,11,12,20,21,22,23,24,24a-hexadecahydro-10H-9,12-methanocyclopenta[18,19][1,10,3,6]dioxadiazacyclononadecino[11,12-b]quinoxaline-10-carboxamide], the EC50 was 1160 nM in series [2]; 28 nM in [3]; 605 nM in series [4]; 9.4 nM in series [5]; 20 nM in [6]; 34 nM in series [7]. The EC50 in [8] came out at 159 nM; in [9], 17 nM; in series [10], 19 nM.

The compound `COc1ccc2nc3c(nc2c1)O[C@H]1CN(C(=O)[C@H](C2(C)CCCC2)NC(=O)O[C@@H]2C[C@H]2CCCC=C3)[C@H](C(=O)OC(C)(C)C)[C@@H]1C` gave a ring closure, yield of all isomers in series [1] (from C=CCCC[C@@H]1C[C@H]1OC(=O)N[C@H](C(=O)N1C[C@H](Oc2nc3cc(OC)ccc3nc2C=C)[C@@H](C)[C@H]1C(=O)OC(C)(C)C)C1(C)CCCC1, 5.03 mM, 83.0 °C, […]) of 78%.

Take `COC(=O)[C@@H]1[C@H](C2CC2)[C@@H]2CN1C(=O)[C@H](C(C)(C)C)NC(=O)O[C@@H]1C[C@H]1CCCC=Cc1nc3ccc(OC)cc3nc1O2`: in [1] (from C=CCCC[C@@H]1C[C@H]1OC(=O)N[C@H](C(=O)N1C[C@H](Oc2nc3cc(OC)ccc3nc2C=C)[C@@H](C2CC2)[C@H]1C(=O)OC)C(C)(C)C, 4.96 mM, 83.0 °C, 0.83 h), the ring closure, yield of all isomers was 39%.

(Values after US20150175655A1 (priority 2012, published 2015).)
